Results as given in ChEMBL document CHEMBL1134372, “Bisphosphonates inhibit the growth of Trypanosoma brucei, Trypanosoma cruzi, Leishmania donovani, Toxoplasma gondii, and Plasmodium falciparum: a potential route to chemotherapy” (J Med Chem, 2001).

Key:
Leishmania donovani [1] = assay: Inhibition of L. donovani (Amastigotes) strain MHOM/ET/67/L82 maintained in female golden hamsters; type: functional, organism-based
Plasmodium falciparum = assay: Inhibition of Plasmodium falciparum 3D7 in erythrocytes; type: functional, organism-based
Trypanosoma brucei [2] = assay: Inhibition of Trypanosoma rhodesiense (strain STIB900) was determined using blood stream from trypomastigotes; type: functional, organism-based
Trypanosoma cruzi [3] = assay: Effect on proliferation of Trypanosoma cruzi Amastigotes in vero cells at a conc of 150 uM was determined; type: functional
Vero [4] = assay: Percent infected vero cells was determined; type: functional
Toxoplasma gondii = assay: Inhibition of Toxoplasma gondii tachyzoites in human foreskin fibroblast monolayer(DMEM with 10%fetal calf serum); type: functional, organism-based
Trypanosoma cruzi [5] = assay: Inhibition of Trypanosoma cruzi Amastigotes was determined in γ-irradiated L6E9 myoblasts culture and fetal calf serum
Leishmania donovani [6] = assay: Inhibition of L. donovani (Amastigotes) strain MHOM/ET/67/L82 maintained in pathogen free spleen from female golden hamsters; toxic; type: functional, organism-based
Vero [7] = assay: Percent infected Vero cells was determined; type: functional
Leishmania donovani [8] = assay: Inhibition of L. donovani (Amastigotes) strain MHOM/ET/67/L82 maintained in pathogen free spleen from female golden hamsters; type: functional, organism-based
Trypanosoma cruzi [9] = assay: Inhibition of Trypanosoma cruzi Amastigotes was determined in γ-irradiated L6E9 myoblasts culture and fetal calf serum; remark: listed apart in the source
Trypanosoma cruzi [10] = assay: microbe, parasite or virus in culture
Description: Compound was evaluated for anti-parasitic activity against Trypanosoma cruzi

Trypanosoma brucei [11] = assay: Compound was evaluated for anti-parasitic activity against Trypanosoma brucei; type: functional, organism-based
Trypanosoma cruzi [12] = assay: Effect on inhibition on proliferation of Trypanosoma cruzi Amastigotes in vero cells at a conc of 150 uM; type: functional

| Structure (SMILES) | IC50 (Leishmania donovani [1]) | IC50 (Plasmodium falciparum) | IC50 (Trypanosoma brucei [2]) | IC50 (Toxoplasma gondii; read-out: IC50) | IC50 (Trypanosoma cruzi [5]) | other results |
| --- | --- | --- | --- | --- | --- | --- |
| O=P(O)(O)C(O)(CCc1cccnc1)P(=O)(O)O | > 200 µM | > 200 µM | 1.7 µM | > 200 µM | > 200 µM | inhibition at 150 µM (Trypanosoma cruzi [3]): 81%; Infected (Vero [4]): 6% |
| NCCCCC(O)(P(=O)(O)O)P(=O)(O)O | 129 µM | > 200 µM | > 200 µM | > 200 µM | > 200 µM | – |
| CCCCC(O)(P(=O)(O)O)P(=O)(O)O | > 200 µM | 56.7 µM | 99.8 µM | – | > 200 µM | – |
| CCCCCC(O)(P(=O)(O)O)P(=O)(O)O | > 200 µM | 5.1 µM | 62.4 µM | – | > 200 µM | – |
| O=P(O)(O)C(O)(Cc1c[nH]cn1)P(=O)(O)O | – | > 200 µM | 8.6 µM | – | 35 µM | IC50 (Leishmania donovani [6]): Toxic |
| CCOP(=O)(OCC)C(Nc1ncccc1C)P(=O)(OCC)OCC | 82.1 µM | > 200 µM | 27.9 µM | – | > 200 µM | inhibition at 150 µM (Trypanosoma cruzi [3]): 69%; Infected (Vero [7]): 9% |
| Nc1ccc(CC(O)(P(=O)(O)O)P(=O)(O)O)cc1 | > 200 µM | > 200 µM | 40 µM | 68.2 µM | > 200 µM | – |
| O=P(O)(O)C(O)(Cc1ccccn1)P(=O)(O)O | – | > 200 µM | 0.22 µM | 9.1 µM | 105 µM | IC50 (Leishmania donovani [6]): Toxic |
| CCCC(O)(P(=O)(O)O)P(=O)(O)O | > 200 µM | 130 µM | 92 µM | – | > 200 µM | IC50 (Toxoplasma gondii): 9.1 µM |
| Cc1cccnc1NC(P(=O)(O)O)P(=O)(O)O | – | > 200 µM | 0.7 µM | – | 147 µM | IC50 (Leishmania donovani [6]): Toxic |
| CC(N)CC(O)(P(=O)(O)O)P(=O)(O)O (stereo unspecified) | – | > 200 µM | 7.8 µM | – | > 200 µM | IC50 (Leishmania donovani [8]): > 200 µM |
| O=P(O)(O)C(O)(CSc1ccncc1)P(=O)(O)O | > 200 µM | 158 µM | 19.8 µM | – | > 200 µM | inhibition at 150 µM (Trypanosoma cruzi [3]): 0%; Infected (Vero [7]): 33% |
| O=P(O)(O)C(O)(Cc1ccncc1)P(=O)(O)O | > 200 µM | > 200 µM | > 200 µM | > 200 µM | – | IC50 (Trypanosoma cruzi [9]): > 200 µM |
| O=P(O)(O)C(O)(Cc1ccccc1)P(=O)(O)O | > 200 µM | 7.7 µM | 21.3 µM | – | > 200 µM | inhibition at 150 µM (Trypanosoma cruzi [3]): 6%; Infected (Vero [7]): 30% |
| NCCCC(O)(P(=O)(O)O)P(=O)(O)O [ALENDRONIC ACID] | 82.5 µM | > 200 µM | > 200 µM | – | 25 µM | – |
| O=C(Cn1ccnc1[N+](=O)[O-])NCc1ccccc1 [BENZNIDAZOLE] | – | – | – | – | – | IC50 (Trypanosoma cruzi [10]): 3.5 µM |
| NCCCCCC(O)(P(=O)(O)O)P(=O)(O)O [NERIDRONIC ACID] | > 200 µM | > 200 µM | 31.7 µM | – | > 200 µM | – |
| CN(C)CCC(O)(P(=O)(O)O)P(=O)(O)O [OLPADRONIC ACID] | > 200 µM | > 200 µM | 5.4 µM | – | > 200 µM | – |
| NCCC(O)(P(=O)(O)O)P(=O)(O)O [PAMIDRONIC ACID] | – | > 200 µM | 177 µM | 35.6 µM | 60 µM | IC50 (Leishmania donovani [6]): Toxic |
| N=C(N)c1ccc(OCCCCCOc2ccc(C(=N)N)cc2)cc1 [PENTAMIDINE] | – | – | – | – | – | IC50 (Trypanosoma brucei [11]): 35 nM |
| O=P(O)(O)C(O)(Cc1cccnc1)P(=O)(O)O [RISEDRONIC ACID] | 2.3 µM | 123 µM | 8.6 µM | 0.49 µM | 123 µM | inhibition at 150 µM (Trypanosoma cruzi [12]): 100%; Infected (Vero [4]): 0% |
